Results as given in PMC11945486, “TAS1R2/TAS1R3 Single-Nucleotide Polymorphisms Affect Sweet Taste Receptor Activation by Sweeteners: The SWEET Project” (Nutrients, 2025).
No end group written: not given here.

Molecular target: T1, human TAS1R2-S212G/TAS1R3-WT (Homo sapiens, UniProt Q7RTX0+Q8TE23, S212G)
T1 construct: expressed in transfected cells; host or cells: HEK293T-Gα16gust44
T1 sequence (Q8TE23 20-839 S212G): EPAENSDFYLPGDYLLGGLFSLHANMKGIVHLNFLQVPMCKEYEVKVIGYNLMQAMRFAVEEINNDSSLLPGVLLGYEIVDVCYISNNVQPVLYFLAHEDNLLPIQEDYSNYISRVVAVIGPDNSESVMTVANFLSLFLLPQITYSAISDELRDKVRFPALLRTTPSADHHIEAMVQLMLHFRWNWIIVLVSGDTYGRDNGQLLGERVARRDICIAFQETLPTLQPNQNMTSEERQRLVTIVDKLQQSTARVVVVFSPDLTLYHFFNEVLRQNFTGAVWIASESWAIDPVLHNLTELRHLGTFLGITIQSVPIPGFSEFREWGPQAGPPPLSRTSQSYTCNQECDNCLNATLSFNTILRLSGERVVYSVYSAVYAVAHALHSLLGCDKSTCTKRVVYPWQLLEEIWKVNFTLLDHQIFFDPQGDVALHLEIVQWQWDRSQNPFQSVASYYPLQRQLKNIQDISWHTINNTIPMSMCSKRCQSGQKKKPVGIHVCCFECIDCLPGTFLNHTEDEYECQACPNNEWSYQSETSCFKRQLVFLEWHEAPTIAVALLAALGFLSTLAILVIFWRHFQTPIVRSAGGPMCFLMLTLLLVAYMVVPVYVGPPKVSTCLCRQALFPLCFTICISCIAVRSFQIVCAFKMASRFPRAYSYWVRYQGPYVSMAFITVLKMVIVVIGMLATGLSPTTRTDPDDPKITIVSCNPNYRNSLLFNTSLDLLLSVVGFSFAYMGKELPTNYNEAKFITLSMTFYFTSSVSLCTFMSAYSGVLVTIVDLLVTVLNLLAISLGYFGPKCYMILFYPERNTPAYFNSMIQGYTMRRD
T1 sequence (Q7RTX0 21-852): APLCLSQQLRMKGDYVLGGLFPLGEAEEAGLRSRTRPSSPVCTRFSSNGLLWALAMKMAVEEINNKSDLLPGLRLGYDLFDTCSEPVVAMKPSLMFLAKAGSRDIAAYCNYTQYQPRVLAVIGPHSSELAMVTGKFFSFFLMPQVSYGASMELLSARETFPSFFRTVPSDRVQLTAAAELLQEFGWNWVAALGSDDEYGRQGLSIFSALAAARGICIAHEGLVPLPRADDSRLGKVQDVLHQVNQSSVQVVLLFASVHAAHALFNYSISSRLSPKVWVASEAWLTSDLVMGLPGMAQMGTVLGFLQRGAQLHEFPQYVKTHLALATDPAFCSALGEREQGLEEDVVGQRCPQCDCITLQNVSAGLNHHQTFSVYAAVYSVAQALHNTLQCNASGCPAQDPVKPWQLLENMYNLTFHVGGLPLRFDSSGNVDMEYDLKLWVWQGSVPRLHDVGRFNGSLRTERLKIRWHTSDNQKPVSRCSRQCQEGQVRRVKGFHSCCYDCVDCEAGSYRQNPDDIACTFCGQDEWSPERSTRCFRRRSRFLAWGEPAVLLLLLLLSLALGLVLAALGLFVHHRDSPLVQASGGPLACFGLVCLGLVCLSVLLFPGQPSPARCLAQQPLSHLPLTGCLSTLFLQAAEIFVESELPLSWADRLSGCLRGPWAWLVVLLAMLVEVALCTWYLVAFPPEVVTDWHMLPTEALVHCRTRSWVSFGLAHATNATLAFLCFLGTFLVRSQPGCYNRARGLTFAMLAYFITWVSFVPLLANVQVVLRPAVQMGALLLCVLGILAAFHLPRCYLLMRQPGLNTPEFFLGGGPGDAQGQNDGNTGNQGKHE
Assay: Calcium mobilisation assay, TAS1R2 variant S212G with TAS1R3-WT
Type: cell-based
Settings: for Max ΔF/F0: maximal signal amplitude
Description: The coding sequences for TAS1R2 and TAS1R3 were commercially synthesised, and the human codon was optimised for expression in human cells. The coding sequences of human TAS1R2 and TAS1R3 were subcloned and inserted into the mammalian expression vectors pcDNA6/myc-HisA and pcDNA4/myc-HisA (Invitrogen; Thermo Fisher Scientific; Illkirch, France) between the EcoRI and NotI restriction sites, generating the plasmids pcDNA6-TAS1R2 and pcDNA4-TAS1R3, respectively. To increase protein expression in mammalian cells, an upstream start codon was used, which was a sequence called MAX, corresponding to the QBI SP163 element also described in pcDNA4-HisMax (Invitrogen; Thermo Fisher Scientific; Illkirch, France). To measure the expression level of the receptor by immunohistochemistry, we used the FLAG sequence ([…]) in the C-terminal position, which encodes the FLAG tag epitope. SNP variants of TAS1R2 and TAS1R3 were constructed based on […], respectively, using site-directed mutagenesis (Genewiz; Leipzig, Germany).
The HEK293T cells were kindly provided by Jay P. Slack (Givaudan Flavors Corporation; Cincinnati, OH, USA). HEK293T cells stably transfected with Gα16gust44 [43, 67] were seeded in poly-D-lysine-coated clear-bottom black 96-well plates (0.35 × 10^5 cells/well) in high-glucose DMEM supplemented with 2 mM GlutaMAX, 10% dialysed foetal bovine serum with penicillin/streptomycin and G418 (400 μg/mL) at 37 °C and 6.3% CO2 in a humidified atmosphere as previously reported. […] As a negative control, HEK293T cells were mock-transfected with the empty expression vector. After a further 24 h of incubation, the HEK293T cells were washed with C1 buffer (130 mM NaCl, 5 mM KCl, 10 mM HEPES pH 7.4 and 2 mM CaCl2). The 96-well plates containing the cells were then stimulated with sweet-tasting compounds. […] Different concentration ranges were tested depending on the sweet compound injected. The Ca^2+ changes were expressed as fractional changes in fluorescent light intensity: ΔF/F = (F − F0)/F0, where F was the fluorescent light intensity at each point, and F0 was the value of emitted fluorescent light prior to stimulus application. To calculate dose–response relationships, the changes in fluorescence upon stimulus application were averaged, mock-subtracted and baseline-corrected. The dose–response data obtained were adjusted using a 4-parameter logistic equation. The half-maximal effective concentrations (EC50 values) and maximal signal amplitudes were calculated using SigmaPlot software (version 15.0) (Systat Software; San Jose, CA, USA).
For in vitro calcium mobilisation assay performed on hTAS1R2-SNPs, hTAS1R3-SNPs and mTAS1R3-I60T, 6 to 7 concentrations were tested for each sweet compound, plus buffer alone. All concentration–receptor combinations were measured in duplicate, and each experiment was repeated at least 4 times (8 wells/concentration). Results were expressed for each concentration as ΔF/F mean ± SEM and represented as dose–response curves.

Molecule	EC50	R1 = Variant EC50/WT EC50	Max ΔF/F0
CC1=CC(=O)NS(=O)(=O)O1 [Acesulfame K, acesulfame K]	438 ± 25 µM	0.6	0.28 ± 0.01
O=S(=O)(O)NC1CCCCC1 [Cyclamate, cyclamate]	1770 ± 44 µM	–	–
C[C@H](CC[C@@H](O[C@@H]1O[C@H](CO[C@@H]2O[C@H](CO)[C@@H](O)[C@H](O)[C@H]2O)[C@@H](O)[C@H](O)[C@H]1O[C@@H]1O[C@H](CO)[C@@H](O)[C@H](O)[C@H]1O)C(C)(C)O)[C@H]1CC[C@@]2(C)[C@@H]3CC=C4[C@@H](CC[C@H](O[C@@H]5O[C@H](CO[C@@H]6O[C@H](CO)[C@@H](O)[C@H](O)[C@H]6O)[C@@H](O)[C@H](O)[C@H]5O)C4(C)C)[C@]3(C)[C@H](O)C[C@]12C [Mogroside V, mogroside V]	21.2 ± 2.1 µM	1.2	1.32 ± 0.05
COc1ccc(CCC(=O)c2c(O)cc(O[C@@H]3O[C@H](CO)[C@@H](O)[C@H](O)[C@H]3O[C@@H]3O[C@@H](C)[C@H](O)[C@@H](O)[C@H]3O)cc2O)cc1O [NHDC, neohesperidin dihydrochalcone]	90.7 ± 8.1 µM	1.2	0.84 ± 0.03
COC(=O)[C@H](Cc1ccccc1)NC(=O)[C@H](CC(=O)O)NCCC(C)(C)C [Neotame]	0.99 ± 0.05 µM	1.2	0.63 ± 0.01
C=C(C)[C@@H]1CC=C(/C=N/O)CC1 [Perillartine, perillartine]	22.9 ± 0.6 µM	1.3	1.30 ± 0.01
C=C1C[C@@]23CC[C@H]4[C@@](C)(CCC[C@@]4(C)C(=O)O[C@@H]4O[C@H](CO)[C@@H](O)[C@H](O[C@@H]5O[C@H](CO)[C@@H](O)[C@H](O)[C@H]5O)[C@H]4O[C@@H]4O[C@H](CO)[C@@H](O)[C@H](O)[C@H]4O)[C@@H]2CC[C@]1(O[C@@H]1O[C@H](CO)[C@@H](O)[C@H](O[C@@H]2O[C@H](CO)[C@@H](O)[C@H](O)[C@H]2O)[C@H]1O[C@@H]1O[C@H](CO)[C@@H](O)[C@H](O)[C@H]1O)C3 [Rebaudioside M, rebaudioside M]	23.2 ± 1.1 µM	1.4	1.14 ± 0.02
OC[C@H]1O[C@H](O[C@]2(CCl)O[C@H](CCl)[C@@H](O)[C@@H]2O)[C@H](O)[C@@H](O)[C@H]1Cl [Sucralose]	96 ± 6 µM	1.1	0.64 ± 0.02
brazzein (QDKCKKVYENYPVSKCQLANQCNYDCKLDKHARSGECFYDEKRNLQCICDYCEY; ends and bridges not checked; cysteine pairing not given here; UniProt P56552 1-54, looked up) [sweet-tasting protein obtained by recombinant production using the yeast Pichia pastoris]	–	1.4	1.18 ± 0.02
thaumatin	–	0.8	0.6 ± 0.01
thaumatin (protein, Eight disulfides, sweet-tasting plant protein, E957) ATFEIVNRCSYTVWAAASKGDAALDAGGRQLNSGESWTINVEPGTKGGKIWARTDCYFDDSGSGICKTGDCGGLLRCKRFGRPPTTLAEFSLNQYGKDYIDISNIKGFNVPMDFSPTTRGCRGVRCAADIVGQCPAKLKAPGGGCNDACTVFQTSEYCCTTGKCGPTEYSRFFKRLCPDAFSYVLDKPTTVTCPGSSNYRVTFCPTA	6.1 ± 0.2 µM	–	–
